In ChEMBL document CHEMBL3400115, “Chemical constituents from Kandelia candel with their inhibitory effects on pro-inflammatory cytokines production in LPS-stimulated bone marrow-derived dendritic cells (BMDCs)” (Bioorg Med Chem Lett, 2015):
pIC50: −log10 of the molar value.

Key:
Format in all cases: functional
[1] = Inhibition of LPS-induced TNF-alpha production in wild-type C57BL/6 mouse BMDC pretreated with compound for 1 hr before LPS treatment measured 16 hrs by ELISA
[2] = Inhibition of LPS-induced IL-12 p40 production in wild-type C57BL/6 mouse BMDC pretreated with compound for 1 hr before LPS treatment measured 16 hrs by ELISA
[3] = Inhibition of LPS-induced IL-6 production in wild-type C57BL/6 mouse BMDC pretreated with compound for 1 hr before LPS treatment measured 16 hrs by ELISA

pIC50 [1]	pIC50 [2]	pIC50 [3]	Structure (SMILES)
< 4.30	< 4.30	< 4.30	O=c1c(O[C@@H]2O[C@H](CO)[C@@H](O)[C@H](O)[C@H]2O)c(-c2ccc(O)c(O)c2)oc2cc(O)cc(O)c12 [ISOQUERCETIN]
< 4.30	< 4.30	< 4.30	Oc1cc(O)c2c(c1)O[C@H](c1ccc(O)c(O)c1)[C@H](O)C2 [(-)-EPICATECHIN]
< 4.30	< 4.30	< 4.30	O=C(O)c1ccc(O)c(O)c1 [PROTOCATECHUIC ACID]
< 4.30	< 4.30	< 4.30	CC(C)(O)[C@H]1CC[C@@]2(C)[C@@H]3C[C@@H](O[C@@H]4O[C@H](CO)[C@@H](O)[C@H](O)[C@H]4O)[C@]2(C)[C@H](O)C31
< 4.30	< 4.30	< 4.30	CC1=C(CC[C@H](C)O)C(C)(C)C[C@H](O[C@@H]2O[C@H](CO)[C@@H](O)[C@H](O)[C@H]2O)C1
< 4.30	< 4.30	< 4.30	COc1cc([C@@H](O)[C@@H](O)CO)cc(OC)c1O (relative stereo)
< 4.30	< 4.30	< 4.30	Oc1cc(O)c2c(c1)O[C@H](c1ccc(O)c(O)c1)[C@@H](O)C2 [CIANIDANOL]
< 4.30	< 4.30	< 4.30	COc1cc(-c2oc3cc(O)cc(O)c3c(=O)c2O[C@@H]2O[C@H](CO)[C@@H](O)[C@H](O)[C@H]2O)ccc1O
4.30	< 4.30	7.15	CC1=CC(=O)CC(C)(C)[C@@]1(O)/C=C/[C@H](C)O[C@@H]1O[C@H](CO)[C@@H](O)[C@H](O)[C@H]1O [6S,9S-ROSEOSIDE]
< 4.30	< 4.30	< 4.30	CC1=CC(=O)CC(C)(C)[C@H]1CC[C@H](C)O[C@@H]1O[C@H](CO)[C@@H](O)[C@H](O)[C@H]1O
< 4.30	< 4.30	< 4.30	COc1cc(-c2oc3cc(O)cc(O)c3c(=O)c2O[C@@H]2O[C@H](CO[C@@H]3O[C@@H](C)[C@H](O)[C@@H](O)[C@H]3O)[C@@H](O)[C@H](O)[C@H]2O)ccc1O [NARCISSIN]
< 4.30	< 4.30	< 4.30	C[C@@H]1O[C@@H](Oc2c(-c3ccc(O)cc3)oc3cc(O)cc(O)c3c2=O)[C@H](O)[C@H](O)[C@H]1O [AFZELIN]
< 4.30	< 4.30	< 4.30	O=C(O)/C=C/c1ccc(O)c(O)c1 [CAFFEIC ACID]
< 4.30	< 4.30	< 4.30	C[C@@H]1O[C@@H](OC[C@H]2O[C@@H](Oc3c(-c4ccc(O)c(O)c4)oc4cc(O)cc(O)c4c3=O)[C@H](O)[C@@H](O)[C@@H]2O)[C@H](O)[C@H](O)[C@H]1O [RUTIN]
< 4.30	< 4.30	< 4.30	COc1cc([C@H]2OC[C@H]3[C@@H]2CO[C@@H]3c2cc(OC)c(O[C@@H]3O[C@H](CO)[C@@H](O)[C@H](O)[C@H]3O)c(OC)c2)cc(OC)c1O
< 4.30	< 4.30	< 4.30	O=C(/C=C/c1ccc(O)c(O)c1)O[C@@H]1C[C@](O)(C(=O)O)C[C@@H](O)[C@H]1O [CHLOROGENIC ACID]
4.54	< 4.30	< 4.30	COc1cc([C@@H](O)[C@H](O)CO)cc(OC)c1O (relative stereo)
